Measured values taken from BigSolDB 2.1.

CC1=C(O)C(=O)C(C)O1 (stereo not drawn)
solubility (mole fraction)
Conditions	278.15 K	283.15 K	288.15 K	293.15 K	298.15 K	303.15 K	308.15 K	313.15 K
in 1,4-dioxane	0.192	0.22	0.248	0.282	0.315	0.357	0.4	0.445
in DMF	0.256	0.281	0.307	0.336	0.368	0.402	0.439	0.479
in acetone	0.127	0.151	0.177	0.209	0.244	0.284	0.329	0.381
in acetonitrile	0.0733	0.0896	0.11	0.134	0.164	0.202	0.248	0.303
in chloroform	0.256	0.281	0.307	0.336	0.368	0.402	0.439	0.479
in cyclohexanone	0.105	0.128	0.155	0.187	0.225	0.269	0.318	0.372
in dichloromethane	0.139	0.16	0.189	0.219	0.254	0.292	0.337	0.386
in isopropanol	0.181	0.211	0.24	0.272	0.309	0.348	0.387	0.435
in methyl acetate	0.139	0.16	0.189	0.219	0.254	0.292	0.337	0.386
in n-propyl acetate	0.139	0.16	0.189	0.219	0.254	0.292	0.337	0.386
in sec-butanol	0.105	0.128	0.155	0.187	0.225	0.269	0.318	0.372
